From ChEMBL document CHEMBL3045426, “Synthesis, Antiviral and Antibacterial Activities of Isatin Mannich Bases” (Med Chem Res, 2005)
Values after ≈ are worked out from the molar mass of the structure shown.

Key:
[1] = system: Proteus vulgaris; assay: Antimicrobial activity against Proteus vulgaris after 18 to 20 hr by agar dilution method; format: functional
[2] = system: Salmonella typhimurium; assay: Antimicrobial activity against Salmonella enterica subsp. enterica serovar Typhimurium after 18 to 20 hr by agar dilution method; format: functional
[3] = system: Shigella boydii; assay: Antimicrobial activity against Shigella boydii after 18 to 20 hr by agar dilution method; format: functional
[4] = system: Vibrio mimicus; assay: Antimicrobial activity against Vibrio mimicus after 18 to 20 hr by agar dilution method; format: functional
[5] = system: Vibrio fluvialis; assay: Antimicrobial activity against Vibrio fluvialis after 18 to 20 hr by agar dilution method; format: functional
[6] = system: Salmonella enteritidis; assay: Antimicrobial activity against Salmonella enterica subsp. enterica serovar Enteritidis after 18 to 20 hr by agar dilution method; format: functional
[7] = system: Plesiomonas; assay: Antimicrobial activity against Plesiomonas after 18 to 20 hr by agar dilution method; format: functional
[8] = system: Vibrio parahaemolyticus; assay: Antimicrobial activity against Vibrio parahaemolyticus after 18 to 20 hr by agar dilution method; format: functional
[9] = Selectivity index, ratio of CC50 for human MT4 cells to EC50 for HIV1 3B infected in MT4 cells; format: toxicity, cell-based; settings: read-out: Ratio CC50/EC50
[10] = system: Hepatitis C virus; assay: Antiviral activity against Hepatitis C virus BM4-5 infected in Huh7 cells assessed as inhibition of viral RNA replication by phosphor screening method; format: functional, Hepacivirus hominis, Huh-7
[11] = system: Human immunodeficiency virus 1; assay: Antiviral activity against Human immunodeficiency virus 1 IIIB infected MT4 cells assessed as inhibition of virus-induced cytopathicity after 5 days by MTT assay; format: functional, organism-based; settings: MT4, 120 h
[12] = system: Klebsiella pneumoniae; assay: Antimicrobial activity against Klebsiella pneumoniae after 18 to 20 hr by agar dilution method; format: functional
[13] = system: Vibrio cholerae; assay: Antimicrobial activity against Vibrio cholerae 01 after 18 to 20 hr by agar dilution method; format: functional; settings: 1
[14] = system: Mycobacterium tuberculosis; assay: Antimycobacterial activity against Mycobacterium tuberculosis H37Rv ATCC 27294 at 6.25 ug/ml by MABA; format: functional
[15] = system: Salmonella paratyphi; assay: Antimicrobial activity against Salmonella enterica subsp. enterica serovar Paratyphi A after 18 to 20 hr by agar dilution method; format: functional
[16] = Cytotoxicity against Homo sapiens (human) HuH7 cells assessed as cell growth at 50 ug/ml after 3 days by Neutral red assay; format: cell-based, Huh-7; settings: read-out: Activity
[17] = system: Klebsiella pneumoniae; assay: Antimicrobial activity against Klebsiella pneumoniae subsp. ozaenae after 18 to 20 hr by agar dilution method; format: functional
[18] = system: Edwardsiella tarda; assay: Antimicrobial activity against Edwardsiella tarda after 18 to 20 hr by agar dilution method; format: functional
[19] = Cytotoxicity against Homo sapiens (human) MT4 cells after 5 days by MTT assay; format: cell-based
[20] = system: Shigella sonnei; assay: Antimicrobial activity against Shigella sonnei after 18 to 20 hr by agar dilution method; format: functional
[21] = system: Proteus mirabilis; assay: Antimicrobial activity against Proteus mirabilis after 18 to 20 hr by agar dilution method; format: functional
[22] = system: Human immunodeficiency virus 1; assay: Antiviral activity against Human immunodeficiency virus 1 IIIB infected MT4 cells assessed as protection against viral infection after 5 days by MTT assay; format: functional; set-up: concentration or dose not given beside the values
[23] = system: Escherichia coli; assay: Antimicrobial activity against Escherichia coli NCTC 10418 after 18 to 20 hr by agar dilution method; format: functional
[24] = system: Priestia megaterium; assay: Antimicrobial activity against Bacillus megaterium after 18 to 20 hr by agar dilution method; format: functional
[25] = system: Pseudomonas aeruginosa; assay: Antimicrobial activity against Pseudomonas aeruginosa after 18 to 20 hr by agar dilution method; format: functional
[26] = system: Enterobacter; assay: Antimicrobial activity against Enterobacter after 18 to 20 hr by agar dilution method; format: functional
[27] = Cytotoxicity against Homo sapiens (human) CEM cells after 5 days by MTT assay; format: cell-based; settings: CEM cells (CCRF-CEM)
[28] = system: Salmonella typhi; assay: Antimicrobial activity against Salmonella enterica subsp. enterica serovar Typhi after 18 to 20 hr by agar dilution method; format: functional
[29] = system: Staphylococcus aureus; assay: Antimicrobial activity against Staphylococcus aureus after 18 to 20 hr by agar dilution method; format: functional
[30] = system: Human immunodeficiency virus 1; assay: Antiviral activity against Human immunodeficiency virus 1 IIIB infected CEM cells assessed as inhibition of virus-induced cytopathicity after 6 days by XTT assay; format: functional, organism-based; settings: CCRF-CEM, 144 h
[31] = system: Vibrio cholerae; assay: Antimicrobial activity against Vibrio cholerae 0139 after 18 to 20 hr by agar dilution method; format: functional; settings: 139
[32] = system: Morganella morganii; assay: Antimicrobial activity against Morganella morganii after 18 to 20 hr by agar dilution method; format: functional
[33] = system: Citrobacter freundii; assay: Antimicrobial activity against Citrobacter freundii after 18 to 20 hr by agar dilution method; format: functional
[34] = system: Human immunodeficiency virus 1; assay: Antiviral activity against Human immunodeficiency virus 1 IIIB infected CEM cells assessed as protection against viral infection after 6 days by XTT assay; format: functional, CCRF-CEM; set-up: concentration or dose not given beside the values
[35] = system: Vero; assay: Cytotoxicity against Chlorocebus aethiops (African green monkey) Vero cells up to 62.5 ug/ml; format: cell-based; settings: chlorocebus sabaeus
[36] = system: Escherichia coli; assay: Antibacterial activity against Escherichia coli NCTC 10418 infected in po dosed CF mouse compound administered 1 hr prior and 4 hr post infection; format: functional; settings: NCTC 10418, po
[37] = system: Mycobacterium tuberculosis; assay: Antimycobacterial activity against Mycobacterium tuberculosis H37Rv ATCC 27294; format: functional

SMILES	MIC [1] [µg/mL]	MIC [2] [µg/mL]	MIC [3] [µg/mL]	MIC [4] [µg/mL]	MIC [5] [µg/mL]	MIC [6] [µg/mL]	MIC [7] [µg/mL]	MIC [8] [µg/mL]	selectivity ratio [9]	inhibition (INH) [10] [%]	EC50 [11] [µg/mL]	MIC [12] [µg/mL]	MIC [13] [µg/mL]	inhibition at 6.25 µg/mL [14] [%]	MIC [15] [µg/mL]	viability at 72 h, 50 ug/ml [16] [%]	MIC [17] [µg/mL]	MIC [18] [µg/mL]	CC50 at 120 h [19] [µg/mL]	MIC [20] [µg/mL]	also measured
COc1cc(Cc2cnc(/N=C3\C(=O)N(CN(Cc4ccccc4)Cc4ccccc4)c4ccc(Cl)cc43)nc2N)cc(OC)c1OC	625 (≈ 942 µM)	1250 (≈ 1880 µM)	1.22 (≈ 1.84 µM)	4.88 (≈ 7.36 µM)	1250 (≈ 1880 µM)	625 (≈ 942 µM)	39.1 (≈ 58.9 µM)	19.5 (≈ 29.4 µM)	3	81	10.4 (≈ 15.7 µM)	1250 (≈ 1880 µM)	1.22 (≈ 1.84 µM)	97	625 (≈ 942 µM)	65	1250 (≈ 1880 µM)	625 (≈ 942 µM)	44.1 (≈ 66.5 µM)	1250 (≈ 1880 µM)	MIC [21]: 625 µg/mL (≈ 942 µM); Activity [22]: 95.1%; MIC [23]: 625 µg/mL (≈ 942 µM); MIC [24]: 1250 µg/mL (≈ 1880 µM); MIC [25]: 1250 µg/mL (≈ 1880 µM); MIC [26]: 625 µg/mL (≈ 942 µM); CC50 at 120 h [27]: 37.1 µg/mL (≈ 55.9 µM); MIC [28]: 625 µg/mL (≈ 942 µM); MIC [29]: 625 µg/mL (≈ 942 µM); EC50 [30]: > 37.1 µg/mL; MIC [31]: 312 µg/mL (≈ 471 µM); MIC [32]: 625 µg/mL (≈ 942 µM); MIC [33]: 1250 µg/mL (≈ 1880 µM); Activity [34]: 20.98%
CCn1cc(C(=O)O)c(=O)c2cc(F)c(N3CCN(CN4C(=O)/C(=N\c5ncc(Cc6cc(OC)c(OC)c(OC)c6)c(N)n5)c5cc(Cl)ccc54)C(C)C3)c(F)c21 (stereo unspecified)	0.153 (≈ 0.187 µM)	0.0381 (≈ 0.0466 µM)	0.305 (≈ 0.373 µM)	0.0381 (≈ 0.0466 µM)	0.019 (≈ 0.0232 µM)	0.0095 (≈ 0.0116 µM)	1.22 (≈ 1.49 µM)	0.0047 (≈ 0.00575 µM)	3	60	17.2 (≈ 21 µM)	9.77 (≈ 11.9 µM)	0.0095 (≈ 0.0116 µM)	100	0.019 (≈ 0.0232 µM)	85	19.5 (≈ 23.9 µM)	0.0763 (≈ 0.0934 µM)	36.9 (≈ 45.2 µM)	4.88 (≈ 5.97 µM)	Activity [35]: Non-toxic; MIC [21]: 0.0763 µg/mL (≈ 0.0934 µM); Activity [22]: 89%; MIC [23]: 0.153 µg/mL (≈ 0.187 µM); MIC [24]: 0.019 µg/mL (≈ 0.0232 µM); MIC [25]: 0.153 µg/mL (≈ 0.187 µM); ED50 [36]: 1.25 mg/kg; MIC [37]: 1.56 µg/mL (≈ 1.91 µM); MIC [26]: 0.0095 µg/mL (≈ 0.0116 µM); CC50 at 120 h [27]: 18.7 µg/mL (≈ 22.9 µM); MIC [28]: 0.019 µg/mL (≈ 0.0232 µM); MIC [29]: 0.0763 µg/mL (≈ 0.0934 µM); EC50 [30]: > 18.7 µg/mL; MIC [31]: 0.0381 µg/mL (≈ 0.0466 µM); MIC [32]: 0.153 µg/mL (≈ 0.187 µM); MIC [33]: 0.0047 µg/mL (≈ 0.00575 µM); Activity [34]: 48.3%
